Values quoted from earlier work, collected in patent publication US6419954B1, “Tablets and methods for modified release of hydrophilic and other active agents” (Yamanouchi Pharmaceutical Co., Ltd., priority 2000, dated 2002).
Structures can show the parent of a compound that is named as a salt. Where two headings read alike, the source gives them in different places.

Settings: at 25° C.

SMILES: CC1OC2(CS1)CN1CCC2CC1 (racemic) [Cevimeline HCl, (+/−)-cis-2-methylspiro [1,3-oxathiolane-5,3′-quinuclidine]hydrochloride, hemihydrate]
- water solubility (hemihydrate): about 766 mg/ml
- water solubility (listed as SNI-2011, hemihydrate): about 1,400 mg/ml
